Laboratory results published in patent US8779158B2, “Trisubstituted pyrazoles as acetylcholine receptor modulators” (Janssen Pharmaceutica NV, priority 2008, dated 2014).

Key:
hα7-wt nAChR = target: T1, hα7-wt nAChR (Homo sapiens, UniProt P36544); assay: Ca2+ flux imaging (FDSS) (Protocol B), potentiation of the choline response; assay type: cell-based; details: Ca2+ assay as described in D.1; for EC50: "<5" = activity did not reach a top plateau at maximal concentration; for Emax: read-out: % Efficacy
T1 construct: expressed in transfected cells
T1 sequence (P36544 23-502): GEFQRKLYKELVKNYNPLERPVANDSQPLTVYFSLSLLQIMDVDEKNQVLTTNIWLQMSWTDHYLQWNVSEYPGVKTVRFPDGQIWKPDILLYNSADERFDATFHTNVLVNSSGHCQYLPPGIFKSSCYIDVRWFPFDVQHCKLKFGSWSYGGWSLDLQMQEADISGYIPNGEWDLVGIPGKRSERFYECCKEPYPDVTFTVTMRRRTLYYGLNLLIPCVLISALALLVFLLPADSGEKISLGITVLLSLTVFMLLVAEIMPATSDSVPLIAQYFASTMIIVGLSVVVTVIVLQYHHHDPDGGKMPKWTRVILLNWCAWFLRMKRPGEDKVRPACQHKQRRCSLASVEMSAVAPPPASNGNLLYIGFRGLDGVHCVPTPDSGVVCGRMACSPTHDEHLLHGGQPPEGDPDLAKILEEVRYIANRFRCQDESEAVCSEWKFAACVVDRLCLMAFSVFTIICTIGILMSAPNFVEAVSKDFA
Outline: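 Cells expressing hα7-wt nAChR, loaded with fluo-4AM (2 μM final) in HBSS with 10 mM HEPES, 5 mM CaCl2, 0.1% BSA and probenecid; compound (0.01–30 μM) added up to 10 min before 100 μM choline. Peak fluorescence potentiation relative to choline alone (100%); EC50 from sigmoidal curve.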

[1] = target: T2, hα7-wt nAChR-expressing GH4C1 cells (Homo sapiens, UniProt P36544); assay: Patch-clamp current recording (whole-cell voltage clamp), potentiation of the choline current and PAM type; assay type: cell-based; design: key: Type 0 compounds minimally enhance the effect size of the current elicited by 1 mM choline.; Type 1 compounds enhance the effect size of the current elicited by 1 mM choline but minimally alter the kinetics of the receptor.; Type 2 compounds enhance the effect size of the current elicited by 1 mM choline while reducing the rate and/or the extent of desensitization.; Type 3 compounds enhance the effect size of the current elicited by 1 mM choline. When tested at higher concentrations up to 10 μM they completely inhibit desensitization, in particular a 1 mM choline application of 250 milliseconds.; Type 4 compounds allow for an initial desensitization of the receptor followed by a re-opening of the receptor during agonist application; details: 1 mM choline
T2 construct: expressed in transfected cells
T2 sequence (P36544 23-502): as above
Method: The compounds of the present invention are classified as type 1-4, based on qualitative kinetic properties, as determined by whole-cell voltage-clamp recordings. This classification is based on the effect of an α7 PAM compound, as described hereinbefore, on the signal elicited by an agonist application. In particular, said agonist is choline at a concentration of 1 mM. In a preferred experimental setting, said α7 PAM compound and choline are simultaneously applied to the cell, as described hereinafter. Desensitization is defined as the closure of the receptor upon activation during the application of the agonist in whole-cell voltage-clamp electrophysiology measurements seen as the reduction of the […] current after initial activation by the agonist.
The definition of the PAM types 1-4 is described hereinafter: • Type 0 compounds minimally enhance the effect size of the current elicited by 1 mM choline. • Type 1 compounds enhance the effect size of the current elicited by 1 mM choline but minimally alter the kinetics of the receptor. In particular, the rate and the extent of desensitization, elicited by the agonist, is not affected. The compound-modulated response to 1 mM choline, therefore, is a close to linear scaling of the 1 mM choline response in absence of the α7 PAM compound. • Type 2 compounds enhance the effect size of the current elicited by 1 mM choline while reducing the rate and/or the extent of desensitization. • Type 3 compounds enhance the effect size of the current elicited by 1 mM choline. […] At low-potency concentrations of the α7 PAM compound, the agonist-induced activation, which is followed by desensitization, can still be separated from the compound-induced re-opening as an initial inward current-maximum. At higher potency concentrations of the α7 PAM compound, the re-opening occurs faster than the closure due to desensitization so that the initial current-maximum disappears.
A compound was considered to have interesting PAM-like activity when the potentiation of the peak current was at least 200% compared to the control choline response (=100%). Such compounds are classified as belonging to a particular PAM type in the Experimental Part. Compounds not meeting the condition are not classified as belonging to a particular PAM-type.
The compounds also have a potentiating effect on the response to choline when measured by whole-cell patch clamp electrophysiology in GH4C1 cells stably over-expressing the human wild-type α7 receptor.
Patch-Clamp Current Recording
Patch-clamp recording from mammalian cells has provided a powerful means of assessing the function of membrane-bound proteins thought to be subunits of ligand-gated ion channels. Activation of such proteins by endogenous or exogenous ligands cause opening of a pore associated with the receptor through which ions flow down their electrochemical gradient. In the case of the hα7-wt nAChR-expressing GH4C1 recombinant cell line the preferential permeability to calcium of this receptor means that calcium flows into the cell upon activation by ACh, choline and other nicotinic ligands giving rise to a calcium current. Since this receptor rapidly desensitizes in the presence of agonist it is important an application system is used which is capable of very rapid switching of solutions (<100 ms) to prevent partial or full desensitisation of receptor responses coincident with the time of agonist application. Consequently, a second convenient technique to assess the enhancement of nicotinic efficacy is patch-clamp recording from hα7-wt nAChR-expressing GH4C1 cells coupled with a rapid-application system.
• The external recording solution consisted of 152 mM NaCl, 5 mM KCl, 1 mM MgCl2, 1 mM Calcium, 10 mM HEPES; pH 7.3. […]

Compound | EC50 (hα7-wt nAChR) [nM] | melting point [°C] | Emax (hα7-wt nAChR) [%] | PAM type [1]
CNC(=O)Cn1nc(Nc2ccc(F)c(F)c2)cc1-c1ccc2c(c1)OCCO2 [compound 7, 3-[(3,4-difluorophenyl)amino]-5-(2,3-dihydro-1,4-benzodioxin-6-yl)-N-methyl-1H-pyrazole-1-acetamide] | 195 | 189.5 to 194.5 |  | 2
CNC(=O)Cn1nc(Nc2cccc(F)c2)cc1-c1ccc2c(c1)OCCO2 [compound 72] | 646 | 189.5 to 194 |  | 2
CNC(=O)Cn1nc(Nc2ccc(F)cc2)cc1-c1ccc2c(c1)OCCO2 [compound 73] | 437 | 169.9 to 177.3 |  | 3
CN(C)C(=O)CCn1nc(Nc2ccc(F)cc2)cc1-c1ccc2c(c1)OCCO2 [compound 83] | 117 | 141.6 to 143.2 |  | 
CNC(=O)Cn1nc(Nc2cccc(C(F)(F)F)c2)cc1-c1ccnc(C)c1 [compound 32] | 4270 |  |  | 2
CC[C@H](O)Cn1nc(Nc2ccc(F)c(F)c2)cc1-c1ccnc(COC)c1 [compound 6, (alphaS)-3-[(3,4-difluorophenyl)amino]-alpha-ethyl-5-[2-(methoxymethyl)-4-pyridinyl]-1H-pyrazole-1-ethanol] | 1150 |  |  | 2
CNC(=O)Cn1nc(Nc2cccc(OC(F)(F)F)c2)cc1-c1ccnc(C)c1 [compound 35] | 2450 |  |  | 2
CCOC(=O)Cn1nc(Nc2ccc(F)c(F)c2)cc1-c1ccc2c(c1)OCCO2 [compound 10, 3-[(3,4-difluorophenyl)amino]-5-(2,3-dihydro-1,4-benzodioxin-6-yl)-1H-pyrazole-1-acetic acid ethyl ester] | 245 |  |  | 2
CNC(=O)Cn1nc(Nc2cccc(Cl)c2)cc1-c1cc(C)nc(C)c1 [compound 54] | 977 |  |  | 2
Cc1cnccc1-c1cc(Nc2cc(F)cc(C(F)(F)F)c2)nn1CCC(=O)N(C)C [compound 9, 3-[[3-fluoro-5-(trifluoromethyl)phenyl]amino]-N,N-dimethyl-5-(3-methyl-4-pyridinyl)-1H-pyrazole-1-propanamide] | 1020 |  |  | 4
CNC(=O)Cn1nc(Nc2cccc(OC(F)(F)F)c2)cc1-c1ccc2c(c1)OCCO2 [compound 77] | 417 |  |  | 4
C[C@H](O)Cn1nc(Nc2cc(F)c(F)c(F)c2)cc1-c1ccc2c(c1)OCCO2 [compound 85] | 1100 |  | 400 | 0
CCNc1cc(-c2cc(Nc3ccc(F)c(F)c3)nn2C[C@@H](O)CC)ccn1 [compound 65] | 575 |  | 1000 | 2
Cc1cnccc1-c1cc(Nc2ccc3c(c2)OC(F)(F)O3)nn1CCC(=O)N(C)C [compound 90] | 912 |  |  | 4
CC[C@H](O)Cn1nc(Nc2cc(OC)cc(C(F)(F)F)c2)cc1-c1ccnc(C)c1C [compound 53] | 1070 |  | 482 | 0
Cc1cc(-c2cc(Nc3ccc(F)c(C(F)(F)F)c3)nn2C[C@H](C)O)ccn1 [compound 43] | 1450 |  | 700 | 1
Cc1ccnc(-c2cc(Nc3ccc(F)c(C(F)(F)F)c3)nn2CCC(=O)N(C)C)c1 [compound 23] | 631 |  |  | 2
Cc1cc(-c2cc(Nc3cccc(Cl)c3)nn2CCC(=O)N(C)C)cc(C)n1 [compound 56] | 525 |  |  | 2
Cc1ccc(-c2cc(Nc3ccc(F)c(C(F)(F)F)c3)nn2CCC(=O)N(C)C)cn1 [compound 28] | 776 |  |  | 4
COc1ccc(-c2cc(Nc3ccc(F)c(F)c3)nn2CCC(=O)N(C)C)c(Cl)c1 [compound 12] | 661 |  |  | 0

More lines, main results first:

EC50 (hα7-wt nAChR) [nM] | melting point [°C] | Emax (hα7-wt nAChR) [%] | Compound | PAM type [1]
631 |  | 946 | CCNC(=O)Cn1nc(Nc2cccc(Cl)c2F)cc1-c1ccnc(C)c1 [compound 137] | 2
479 |  | 736 | Cc1cc(-c2cc(Nc3ccc4c(c3)OC(F)(F)O4)nn2CC(=O)NC2CC2)cc(C)n1 [compound 145] | 2
525 |  | 901 | CCNC(=O)Cn1nc(Nc2cccc(Cl)c2F)cc1-c1cc(C)nc(C)c1 [compound 154] | 2
437 |  |  | COCc1cc(-c2cc(Nc3cccc(Cl)c3)nn2CCC(=O)N(C)C)ccn1 [compound 149] | 4
550 |  | 749 | CCNC(=O)Cn1nc(Nc2ccc(F)c(F)c2)cc1-c1cc(C)nc(C)c1 [compound 151] | 2
1860 |  | 907 | CNC(=O)Cn1nc(Nc2ccc(F)c(F)c2F)cc1-c1ccnc(C)c1 [compound 107] | 2
646 |  |  | CC[C@H](O)Cn1nc(Nc2cccc(Cl)c2)cc1-c1ccnc(COC)c1 [compound 136] | 1
339 |  |  | Cc1cc(-c2cc(Nc3cccc(Cl)c3)nn2CC(=O)NCC2CC2)cc(C)n1 [compound 100] | 2
135 |  | 401 | Cc1cc(-c2cc(Nc3cccc(Cl)c3F)nn2CCC(=O)N(C)C)cc(C)n1 [compound 173] | 1
263 |  | 778 | Cc1cc(-c2cc(Nc3cc(F)c(F)c(F)c3)nn2CC(=O)NCC2CC2)ccn1 [compound 168] | 2
1510 |  |  | CNC(=O)Cn1nc(Nc2ccc3c(c2)OC(F)(F)O3)cc1-c1ccnc(COC)c1 [compound 112] | 4
1070 |  |  | CC[C@H](O)Cn1nc(Nc2ccc(F)c(F)c2F)cc1-c1ccnc(COC)c1 [compound 121] | 2
182 |  |  | COCc1cc(-c2cc(Nc3ccc4c(c3)OC(F)(F)O4)nn2CCC(=O)N(C)C)ccn1 [compound 96] | 3
245 |  |  | COc1cccc(-c2cc(Nc3ccc(F)c(F)c3)nn2CCC(=O)N(C)C)c1 [compound 103] | 2
77.6 |  |  | COc1ccc(-c2cc(Nc3ccc(F)c(F)c3)nn2CCC(=O)N(C)C)cc1 [compound 102] | 4
851 |  | 643 | CCNC(=O)Cn1nc(Nc2cc(F)c(F)c(F)c2)cc1-c1ccnc(C)c1 [compound 128] | 2
617 |  | 816 | Cc1cc(-c2cc(Nc3cc(F)c(F)c(F)c3)nn2CCC(=O)N(C)C)ccn1 [compound 142] | 2
468 |  | 856 | CCNC(=O)Cn1nc(Nc2ccc(F)c(C(F)(F)F)c2)cc1-c1cc(C)nc(C)c1 [compound 152] | 2
1120 | 171.5 to 171.8 |  | CNC(=O)Cn1nc(Nc2ccc3c(c2)OC(F)(F)O3)cc1-c1ccc2c(c1)OCCO2 [compound 97] | 
